In assay [1] the target is T1, Btk (Homo sapiens, UniProt Q06187). Put plainly: Btk in vitro inhibitory activity (Method A, B or C). The format is biochemical. On the set-up: purified from insect cells as a full-length construct containing a N-terminal 6×-His tag; His6 (N); made in house; host or cells: insect cells (baculovirus, Sf21). Particulars: one of the methods of Example 53a, 53b, 53c. On the procedure:
Btk kinase activity is determined using a time-resolved fluorescence resonance energy transfer (TR-FRET) methodology. Measurements are performed in a reaction volume of 50 μL using 96-well assay plates. Kinase enzyme, inhibitor, ATP (at the Km for the kinase), and 1 μM peptide substrate (Biotin-AVLESEEELYSSARQ-NH2 (SEQ ID NO: 1)) are incubated in a reaction buffer composed of 20 mM Tris, 50 mM NaCl, MgCl2 (5-25 mM depending on the kinase), MnCl2 (0-10 mM), 1 mM DTT, 0.1 mM EDTA, 0.01% bovine serum albumin, 0.005% Tween-20, and 10% DMSO at pH 7.4 for one hour. The reaction is quenched by the addition of 1.2 equivalents of EDTA (relative to divalent cation) in 25 μL of 1× Lance buffer (Perkin-Elmer). Streptavidin-APC (Perkin-Elmer) and Eu-labeled p-Tyr100 antibody (Perkin-Elmer) in 1× Lance buffer are added in a 25 μL volume to give final concentrations of 100 nM and 2.5 nM, respectively, and the mixture is allowed to incubate for one hour. The TR-FRET signal is measured on a multimode plate reader with an excitation wavelength (λEx) of 330 nm and detection wavelengths (λEm) of 615 and 665 nm. Activity is determined by the ratio of the fluorescence at 665 nm to that at 615 nm. For each compound, enzyme activity is measured at various concentrations of compound. Negative control reactions are performed in the absence of inhibitor in replicates of six, and two no-enzyme controls are used to determine baseline fluorescence levels. Inhibition constants, Ki(app), ware obtained using the program BatchKi (Kuzmic et al. (2000), Anal. Biochem. 286:45-50). IC50s are obtained according to the equation: IC50={Ki(app)/1+[ATP]/Km^ATP)}+[E]total/2;
For all kinases, [ATP]=Km^ATP, [Btk]total=0.5 nM and [Lck]total=6 nM.
Kinase activity is measured in vitro using electrophoretic mobility shift assay. The kinase reactions are assembled in a total volume of 25 μL in 384 well plates. The reactions comprise: BTK enzyme (1 nM, N-terminal His6-tagged, recombinant, full-length, human BTK purified from baculovirus Sf21 insect cell system), inhibitor, ATP (16 μM, the apparent Km for the kinase), fluorescently labeled peptide substrate (1 μM, FAM-GEEPLYWSFPAKKK-NH2 (SEQ ID NO: 2)) in a reaction buffer composed of 100 mM HEPES, pH7.5, 5 mM MgCl2 1 mM DTT, 0.1% bovine serum albumin, 0.01% Triton X-100, and 1% DMSO. The reaction is incubated for one hour and is quenched by the addition of 45 μL of termination buffer (100 mM HEPES, pH7.5, 0.01% Triton X-100, 30 mM EDTA). The terminated reactions are analyzed using 12 channel LabChip® 3000 microfluidic detection instrument (Caliper Life Sciences). The enzymatic phosphorylation of the peptide results in a change in net charge, enabling electrophoretic separation of product from substrate peptide. As substrate and product peptides are separated, two peaks of fluorescence are observed. Change in the relative fluorescence intensity of the substrate and product peaks is the parameter measured, reflecting enzyme activity. In the presence of an inhibitor, the ratio between product and substrate is altered: the signal of the product decreases, while the signal of the substrate increases.
Activity in each sample is determined as the product to sum ratio (PSR):P/(S+P), where P is the peak height of the product peptide and S is the peak height of the substrate peptide. For each compound, enzyme activity is measured at various concentrations (12 concentrations of compound spaced by 3× dilution intervals). Negative control samples (0%−inhibition in the absence of inhibitor) and positive control samples (100%−inhibition, in the presence of 20 mM EDTA) are assembled in replicates of four and are used to calculate %−inhibition values for each inhibitor at each concentration. Percent inhibition (Pinh) is determined using following equation: […]

The next assay deals with lymphoma cell line DOHH2. The assay can be described thus: Lymphoma cell assay (anti-IgG stimulated CD69, FACS). The format is cell-based. Particulars: DOHH-2; DOHH2 cells stimulated with anti-human IgG F(ab')2 10 μg/mL, 14 to 20 hours; read-out: IC50 (50% decrease in CD69 fluorescence on cell surface). How it is done: Cells of lymphoma cell line DOHH2 were seeded in 96-well plates in standard growth media (RPMI+10% fetal calf serum). Compounds were added in an 8-point dilution series ranging from 10 to 0.004 μM with DMSO at 0.1% final concentration in all wells. Cells were then stimulated with a F(ab′)2 fragment of anti-human IgG at 10 μg/mL for 14 to 20 hours before staining for FACS analysis. Cells were incubated with fluorescent-labeled anti-CD69 antibody for 30 minutes on ice in FACS buffer and analyzed on the FACSCanto flowcytometry. The IC50, the concentration that results in a 50% decrease in intensity of fluorescence detected on the cell surface, was calculated using the Prizm software to fit the dose-response curve.

Assay [2] deals with T1, Btk. Put plainly: Inhibition of a panel of kinases: Btk. It is filed as biochemical. Particulars: kinase panel, Table 2. How it is done:
(§1) The degree of inhibition of a panel of kinases is determined using assays similar to the kinase assay described in Example 53.

A further assay concerns the target EGFR (Homo sapiens, UniProt P00533). Put plainly: Inhibition of a panel of kinases: EGFR. The format is biochemical. Particulars: kinase panel, Table 2. On the procedure: as §1
The next assay has as its target LCK (Homo sapiens, UniProt P06239). The assay can be described thus: Inhibition of a panel of kinases: LCK. It is filed as biochemical. Particulars: kinase panel, Table 2. On the procedure:
as §1

For the next assay, the target named is T2, JAK3 (Homo sapiens, UniProt P52333).
T2 sequence (P52333 1-1124): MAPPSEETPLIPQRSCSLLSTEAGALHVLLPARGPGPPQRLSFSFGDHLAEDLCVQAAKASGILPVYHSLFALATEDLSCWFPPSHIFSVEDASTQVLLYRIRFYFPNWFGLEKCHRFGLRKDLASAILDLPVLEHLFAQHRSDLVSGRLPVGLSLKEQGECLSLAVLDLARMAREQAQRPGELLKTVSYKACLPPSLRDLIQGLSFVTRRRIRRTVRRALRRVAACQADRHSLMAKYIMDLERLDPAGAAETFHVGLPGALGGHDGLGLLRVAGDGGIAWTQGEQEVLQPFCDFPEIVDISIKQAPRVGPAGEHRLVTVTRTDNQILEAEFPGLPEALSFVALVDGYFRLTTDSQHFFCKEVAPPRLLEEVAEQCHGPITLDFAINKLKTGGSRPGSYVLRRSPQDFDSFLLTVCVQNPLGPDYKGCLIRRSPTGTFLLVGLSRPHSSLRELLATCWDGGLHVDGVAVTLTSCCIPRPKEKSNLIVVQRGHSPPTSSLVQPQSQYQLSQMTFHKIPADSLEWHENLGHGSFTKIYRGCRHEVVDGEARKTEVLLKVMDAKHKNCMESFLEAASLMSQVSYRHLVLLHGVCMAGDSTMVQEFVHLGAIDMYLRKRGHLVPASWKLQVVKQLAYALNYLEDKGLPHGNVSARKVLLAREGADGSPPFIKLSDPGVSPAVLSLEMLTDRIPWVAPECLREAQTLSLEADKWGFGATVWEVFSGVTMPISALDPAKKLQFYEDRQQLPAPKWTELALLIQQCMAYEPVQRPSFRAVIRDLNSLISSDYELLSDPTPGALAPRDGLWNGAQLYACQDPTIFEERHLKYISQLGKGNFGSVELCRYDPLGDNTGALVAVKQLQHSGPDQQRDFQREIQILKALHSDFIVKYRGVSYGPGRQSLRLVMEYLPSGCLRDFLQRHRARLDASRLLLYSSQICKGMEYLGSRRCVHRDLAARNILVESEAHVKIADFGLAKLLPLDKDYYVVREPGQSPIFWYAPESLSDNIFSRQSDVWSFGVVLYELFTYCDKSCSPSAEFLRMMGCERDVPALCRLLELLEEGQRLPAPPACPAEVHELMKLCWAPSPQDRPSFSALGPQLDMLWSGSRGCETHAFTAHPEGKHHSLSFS
Put plainly: Inhibition of a panel of kinases: JAK3. It is filed as biochemical. Particulars: kinase panel, Table 2. How it is done: as §1

The results in this text go back to patent US9533991B2, “Inhibitors of Bruton's tyrosine kinase” (PHARMACYCLICS LLC, priority 2014, dated 2017).

The structures appear in SMILES notation.

The IC50 is the midpoint of a concentration-inhibition curve.

Sequence of LCK (P06239 whole entry, species assumed): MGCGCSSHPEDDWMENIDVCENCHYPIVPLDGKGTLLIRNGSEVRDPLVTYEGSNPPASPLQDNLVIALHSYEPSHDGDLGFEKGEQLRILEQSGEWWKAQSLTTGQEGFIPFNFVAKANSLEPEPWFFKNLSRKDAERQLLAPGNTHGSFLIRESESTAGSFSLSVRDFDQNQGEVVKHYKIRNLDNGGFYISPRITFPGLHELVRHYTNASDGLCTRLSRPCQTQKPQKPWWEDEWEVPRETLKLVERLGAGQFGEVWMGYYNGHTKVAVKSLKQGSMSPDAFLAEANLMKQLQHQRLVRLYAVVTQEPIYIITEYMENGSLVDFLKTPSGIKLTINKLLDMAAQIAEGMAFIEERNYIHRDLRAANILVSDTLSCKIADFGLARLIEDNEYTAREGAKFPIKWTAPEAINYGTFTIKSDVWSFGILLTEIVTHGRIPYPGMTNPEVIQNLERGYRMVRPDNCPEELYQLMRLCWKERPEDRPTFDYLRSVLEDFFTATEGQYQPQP
Sequence of EGFR (P00533 25-1210, species assumed): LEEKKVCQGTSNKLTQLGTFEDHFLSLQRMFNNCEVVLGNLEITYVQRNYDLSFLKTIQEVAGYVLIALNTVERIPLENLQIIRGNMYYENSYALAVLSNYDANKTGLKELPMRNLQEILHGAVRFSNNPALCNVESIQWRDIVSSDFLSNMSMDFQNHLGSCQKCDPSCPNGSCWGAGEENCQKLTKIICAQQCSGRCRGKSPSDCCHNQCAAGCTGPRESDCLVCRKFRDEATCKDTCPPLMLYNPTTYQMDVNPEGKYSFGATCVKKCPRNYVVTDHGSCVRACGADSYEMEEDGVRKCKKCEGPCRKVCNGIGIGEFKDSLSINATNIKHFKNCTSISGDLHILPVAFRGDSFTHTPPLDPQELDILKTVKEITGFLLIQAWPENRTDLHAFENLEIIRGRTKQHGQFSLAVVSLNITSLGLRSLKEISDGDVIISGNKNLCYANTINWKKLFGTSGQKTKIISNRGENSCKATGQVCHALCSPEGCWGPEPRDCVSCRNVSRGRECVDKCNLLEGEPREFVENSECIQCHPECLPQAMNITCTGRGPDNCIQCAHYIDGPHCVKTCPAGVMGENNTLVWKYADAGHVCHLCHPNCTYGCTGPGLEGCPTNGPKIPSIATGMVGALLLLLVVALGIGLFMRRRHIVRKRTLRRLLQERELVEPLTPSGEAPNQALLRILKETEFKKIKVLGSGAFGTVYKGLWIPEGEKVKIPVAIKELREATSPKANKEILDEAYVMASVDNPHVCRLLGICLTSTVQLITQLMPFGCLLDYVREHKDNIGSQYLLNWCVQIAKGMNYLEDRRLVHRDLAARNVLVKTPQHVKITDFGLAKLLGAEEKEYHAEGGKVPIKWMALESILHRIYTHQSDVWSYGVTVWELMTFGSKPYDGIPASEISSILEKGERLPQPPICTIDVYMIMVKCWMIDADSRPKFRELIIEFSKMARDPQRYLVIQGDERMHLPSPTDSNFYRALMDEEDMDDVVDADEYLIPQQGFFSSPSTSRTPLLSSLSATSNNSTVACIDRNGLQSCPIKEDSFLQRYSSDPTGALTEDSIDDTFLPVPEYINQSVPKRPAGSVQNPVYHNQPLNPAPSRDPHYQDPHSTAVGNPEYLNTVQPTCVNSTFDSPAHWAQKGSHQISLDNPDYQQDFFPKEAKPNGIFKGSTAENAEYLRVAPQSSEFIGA
T1 sequence (Q06187 whole entry): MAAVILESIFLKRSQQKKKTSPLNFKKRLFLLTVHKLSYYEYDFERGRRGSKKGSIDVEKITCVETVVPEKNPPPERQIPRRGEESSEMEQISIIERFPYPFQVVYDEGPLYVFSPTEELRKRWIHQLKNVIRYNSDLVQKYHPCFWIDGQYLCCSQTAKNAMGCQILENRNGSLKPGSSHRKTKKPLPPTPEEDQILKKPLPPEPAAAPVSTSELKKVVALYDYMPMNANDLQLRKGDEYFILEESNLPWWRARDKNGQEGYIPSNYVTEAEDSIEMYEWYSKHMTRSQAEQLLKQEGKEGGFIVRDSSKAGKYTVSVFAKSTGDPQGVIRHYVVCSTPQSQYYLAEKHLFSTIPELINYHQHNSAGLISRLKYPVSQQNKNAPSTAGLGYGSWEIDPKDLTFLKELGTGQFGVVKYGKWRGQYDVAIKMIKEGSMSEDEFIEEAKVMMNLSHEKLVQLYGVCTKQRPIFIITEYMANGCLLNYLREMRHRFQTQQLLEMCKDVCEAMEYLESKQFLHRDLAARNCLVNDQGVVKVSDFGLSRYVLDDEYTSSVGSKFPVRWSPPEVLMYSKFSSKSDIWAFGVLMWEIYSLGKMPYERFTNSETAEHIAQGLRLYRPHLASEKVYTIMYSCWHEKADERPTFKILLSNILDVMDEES

For the compound `C=CC(=O)N1CCC[C@@H](n2nc(-c3ccc(C(=O)Nc4cc(C)ccn4)cc3)c3c(N)ncnc32)C1` [Compound ID 26, (R)-4-(1-(1-acryloylpiperidin-3-yl)-4-amino-1H-pyrazolo[3,4-d]pyrimidin-3-yl)-N-(4-methylpyridin-2-yl)benzamide], the IC50 is no more than 10 nM against Btk [1] and less than 5 nM with lymphoma cell line DOHH2.

Consider `C=CC(=O)N1CC[C@@H](n2nc(-c3ccc(C(=O)Nc4cc(C(F)(F)F)ccn4)cc3)c3c(N)ncnc32)C1` [Compound ID 21, (R)-4-(1-(1-acryloylpyrrolidin-3-yl)-4-amino-1H-pyrazolo[3,4-d]pyrimidin-3-yl)-N-(4-(trifluoromethyl)pyridin-2-yl)benzamide], for which the IC50 at Btk [1] is no more than 10 nM; on Btk [2] it was no more than 10 nM; against EGFR it was no more than 10 nM; with lymphoma cell line DOHH2, less than 5 nM; against LCK, 10 to 100 nM.

`C=CC(=O)N1CC[C@@H](n2nc(-c3ccc(C(=O)Nc4cc(C(C)C)ccn4)cc3)c3c(N)ncnc32)C1` [Compound ID 23, (R)-4-(1-(1-acryloylpyrrolidin-3-yl)-4-amino-1H-pyrazolo[3,4-d]pyrimidin-3-yl)-N-(4-isopropylpyridin-2-yl)benzamide]: the IC50 was no more than 10 nM against Btk [1] and less than 5 nM with lymphoma cell line DOHH2.

For the compound `C=CC(=O)N1CCC[C@@H](n2nc(-c3ccc(C(=O)Nc4cc(CCC)ccn4)cc3)c3c(N)ncnc32)C1` [Compound ID 31, (R)-4-(1-(1-acryloylpiperidin-3-yl)-4-amino-1H-pyrazolo[3,4-d]pyrimidin-3-yl)-N-(4-propylpyridin-2-yl)benzamide], the half-inhibitory concentration (IC50) on Btk [1] was no more than 10 nM; with lymphoma cell line DOHH2, less than 5 nM.

For `C=CC(=O)N1CC[C@@H](n2nc(-c3ccc(C(=O)Nc4cc(CCC)ccn4)cc3)c3c(N)ncnc32)C1` [Compound ID 30, (R)-4-(1-(1-acryloylpyrrolidin-3-yl)-4-amino-1H-pyrazolo[3,4-d]pyrimidin-3-yl)-N-(4-propylpyridin-2-yl)benzamide], the results for the 50% inhibitory concentration (IC50) against Btk [1] and in the assay with lymphoma cell line DOHH2 were no more than 10 nM and less than 5 nM, respectively.

Take `C=CC(=O)N1CCC[C@@H](n2nc(-c3ccc(C(=O)Nc4cc(C(F)(F)F)ccn4)cc3)c3c(N)ncnc32)C1` [Compound ID 27, (R)-4-(1-(1-acryloylpiperidin-3-yl)-4-amino-1H-pyrazolo[3,4-d]pyrimidin-3-yl)-N-(4-(trifluoromethyl)pyridin-2-yl)benzamide]: the IC50 at Btk [1] was no more than 10 nM; with lymphoma cell line DOHH2, less than 5 nM.

Consider `CC#CC(=O)N1CC[C@@H](n2nc(-c3ccc(C(=O)Nc4cc(C)ccn4)cc3)c3c(N)ncnc32)C1` [Compound ID 2, (R)-4-(4-amino-1-(1-but-2-ynoylpyrrolidin-3-yl)-1H-pyrazolo[3,4-d]pyrimidin-3-yl)-N-(4-methylpyridin-2-yl)benzamide], for which the IC50 was no more than 10 nM against Btk [1]; no more than 10 nM against Btk [2]; greater than 1000 nM at EGFR; greater than 1000 nM against JAK3; 100 to 1000 nM at LCK.

`CC#CC(=O)N1CC[C@@H](n2nc(-c3ccc(C(=O)Nc4ccccn4)cc3)c3c(N)ncnc32)C1` [Compound ID 3, (R)-4-(4-amino-1-(1-but-2-ynoylpyrrolidin-3-yl)-1H-pyrazolo[3,4-d]pyrimidin-3-yl)-N-(pyridin-2-yl)benzamide]: the IC50 was no more than 10 nM on Btk [1]; no more than 10 nM at Btk [2]; 100 to 1000 nM against EGFR; greater than 1000 nM on JAK3; 10 to 100 nM against LCK.

As to `C=CC(=O)N1CC[C@@H](n2nc(-c3ccc(C(=O)Nc4cc(C)ccn4)cc3)c3c(N)ncnc32)C1` [Compound ID 20, (R)-4-(1-(1-acryloylpyrrolidin-3-yl)-4-amino-1H-pyrazolo[3,4-d]pyrimidin-3-yl)-N-(4-methylpyridin-2-yl)benzamide], the 50% inhibitory concentration (IC50) on Btk [1] is no more than 10 nM; on Btk [2], no more than 10 nM; against EGFR, no more than 10 nM; in the assay with lymphoma cell line DOHH2, less than 5 nM; at LCK it was 10 to 100 nM.
